Assay results as given in patent US20090155209A1, “NOVEL MACROCYCLIC INHIBITORS OF HEPATITIS C VIRUS REPLICATION” (priority 2007, published 2009).

Key:
NS3-NS4 [1] = biological target: T1, NS3-NS4 (Hepatitis C virus genotype 1a, UniProt P27958); assay: NS3-NS4 activity, IC50 (Example 37, Table 8); assay type: biochemical
NS3-NS4 [2] = biological target: T1, NS3-NS4; assay: cell-based; details: EC50, NS3-NS4 activity

T1 sequence (P27958 1027-1657): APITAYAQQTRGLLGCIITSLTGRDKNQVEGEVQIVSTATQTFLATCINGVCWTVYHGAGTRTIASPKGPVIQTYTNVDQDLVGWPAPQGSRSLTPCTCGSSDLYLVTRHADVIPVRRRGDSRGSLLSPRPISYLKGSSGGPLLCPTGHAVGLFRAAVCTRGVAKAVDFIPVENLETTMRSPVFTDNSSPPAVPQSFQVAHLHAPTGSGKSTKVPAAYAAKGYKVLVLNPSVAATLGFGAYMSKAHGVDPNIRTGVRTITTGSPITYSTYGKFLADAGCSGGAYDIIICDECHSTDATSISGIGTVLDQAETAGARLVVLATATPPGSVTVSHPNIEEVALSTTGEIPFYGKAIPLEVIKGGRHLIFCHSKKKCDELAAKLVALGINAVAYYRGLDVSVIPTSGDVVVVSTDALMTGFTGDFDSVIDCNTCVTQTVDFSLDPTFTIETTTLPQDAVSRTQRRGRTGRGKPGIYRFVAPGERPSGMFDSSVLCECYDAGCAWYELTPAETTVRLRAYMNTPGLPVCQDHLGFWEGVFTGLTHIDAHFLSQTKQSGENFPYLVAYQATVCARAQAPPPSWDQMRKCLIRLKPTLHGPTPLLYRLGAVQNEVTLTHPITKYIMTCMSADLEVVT
T1 sequence (P27958 1658-1711): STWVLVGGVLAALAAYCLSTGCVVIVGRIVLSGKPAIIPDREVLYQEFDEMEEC

SMILES | IC50 (NS3-NS4 [1]) [nM] | EC50 (NS3-NS4 [2]) [nM]
CC1(OC(=O)N[C@H]2CCCCC/C=C\[C@@H]3C[C@@]3(C(=O)NS(=O)(=O)C3CC3)NC(=O)[C@@H]3C[C@@H](OC(=O)N4Cc5cccc(F)c5C4)CN3C2=O)CC1 [Compound 404, (2R,6S,13aS,14aR,16aS,Z)-14a-(cyclopropylsulfonylcarbamoyl)-6-((1-methylcyclopropoxy)carbonylamino)-5,16-dioxo-1,2,3,5,6,7,8,9,10,11,13a,14,14a,15,16,16a-hexadecahydrocyclopropa[e]pyrrolo[1,2-a][1,4]diazacyclopentadecin-2-yl 4-fluoroisoindoline-2-carboxylate] | < 100 | < 100
CCC(C)(C)OC(=O)N[C@H]1CCCCC/C=C\[C@@H]2C[C@@]2(C(=O)NS(=O)(=O)C2CC2)NC(=O)[C@@H]2C[C@@H](OC(=O)N3Cc4cccc(F)c4C3)CN2C1=O [Compound 405, (2R,6S,13aS,14aR,16aS,Z)-14a-(cyclopropylsulfonylcarbamoyl)-5,16-dioxo-6-(tert-pentyloxycarbonylamino)-1,2,3,5,6,7,8,9,10,11,13a,14,14a,15,16,16a-hexadecahydrocyclopropa[e]pyrrolo[1,2-a][1,4]diazacyclopentadecin-2-yl 4-fluoroisoindoline-2-carboxylate] | < 100 | < 100
CC(C)(C)COC(=O)N[C@H]1CCCCC/C=C\[C@@H]2C[C@@]2(C(=O)NS(=O)(=O)C2CC2)NC(=O)[C@@H]2C[C@@H](OC(=O)N3Cc4cccc(F)c4C3)CN2C1=O [Compound 406, (2R,6S,13aS,14aR,16aS,Z)-14a-(cyclopropylsulfonylcarbamoyl)-6-(neopentyloxycarbonylamino)-5,16-dioxo-1,2,3,5,6,7,8,9,10,11,13a,14,14a,15,16,16a-hexadecahydrocyclopropa[e]pyrrolo[1,2-a][1,4]diazacyclopentadecin-2-yl 4-fluoroisoindoline-2-carboxylate] | < 100 | < 100
CN(C(=O)N[C@H]1CCCCC/C=C\[C@@H]2C[C@@]2(C(=O)NS(=O)(=O)C2CC2)NC(=O)[C@@H]2C[C@@H](OC(=O)N3Cc4cccc(F)c4C3)CN2C1=O)C(C)(C)C [Compound 407, (2R,6S,13aS,14aR,16aS,Z)-6-(3-tert-butyl-3-methylureido)-14a-(cyclopropylsulfonylcarbamoyl)-5,16-dioxo-1,2,3,5,6,7,8,9,10,11,13a,14,14a,15,16,16a-hexadecahydrocyclopropa[e]pyrrolo[1,2-a][1,4]diazacyclopentadecin-2-yl 4-fluoroisoindoline-2-carboxylate] | < 100 | < 100
O=C1N[C@]2(C(=O)NS(=O)(=O)C3CC3)C[C@H]2/C=C\CCC(F)(F)CC[C@H](NC(=O)C2(C(F)(F)F)CC2)C(=O)N2C[C@H](OC(=O)N3Cc4cccc(F)c4C3)C[C@@H]12 [Compound 408] | < 100 | < 100
O=C1N[C@]2(C(=O)NS(=O)(=O)C3CC3)C[C@H]2/C=C\CCC(F)(F)CC[C@H](NC(=O)C2(C(F)(F)F)CC2)C(=O)N2C[C@H](OC(=O)N3Cc4ccccc4C3)C[C@@H]12 [Compound 409] | < 100 | < 100
O=C(N[C@H]1CCCCC/C=C\[C@@H]2C[C@@]2(C(=O)NS(=O)(=O)C2CC2)NC(=O)[C@@H]2C[C@@H](OC(=O)N3Cc4ccc(F)cc4C3)CN2C1=O)OC1CCOCC1 [Compound 410] | < 100 | 100 to 1000
O=C(N[C@H]1CCCCC/C=C\[C@@H]2C[C@@]2(C(=O)NS(=O)(=O)C2CC2)NC(=O)[C@@H]2C[C@@H](OC(=O)N3Cc4cccc(Cl)c4C3)CN2C1=O)OC1CCOCC1 [Compound 411] | < 100 | < 100
O=C(N[C@H]1CCCCC/C=C\[C@@H]2C[C@@]2(C(=O)NS(=O)(=O)C2CC2)NC(=O)[C@@H]2C[C@@H](OC(=O)N3Cc4cccc(F)c4C3)CN2C1=O)OC1CCOC1 (stereo partly shown) [Compound 412] | < 100 | < 100
O=C(N[C@H]1CCCCC/C=C\[C@@H]2C[C@@]2(C(=O)NS(=O)(=O)C2CC2)NC(=O)[C@@H]2C[C@@H](OC(=O)N3Cc4cccc(F)c4C3)CN2C1=O)c1ccc(Cl)cc1 [Compound 413] | < 100 | < 100
O=C1N[C@]2(C(=O)NS(=O)(=O)C3CC3)C[C@H]2/C=C\CCCCC[C@H](NC(=O)N2CCOCC2)C(=O)N2C[C@H](OC(=O)N3Cc4cccc(F)c4C3)C[C@@H]12 [Compound 414] | < 100 | 100 to 1000
O=C1N[C@]2(C(=O)NS(=O)(=O)C3CC3)C[C@H]2/C=C\CCCCC[C@H](NC(=O)N2CCCCC2)C(=O)N2C[C@H](OC(=O)N3Cc4cccc(F)c4C3)C[C@@H]12 [Compound 415] | < 100 | < 100
O=C1N[C@]2(C(=O)NS(=O)(=O)C3CC3)C[C@H]2/C=C\CCCCC[C@H](NC(=O)N2CCC(F)(F)C2)C(=O)N2C[C@H](OC(=O)N3Cc4cccc(F)c4C3)C[C@@H]12 [Compound 416] | < 100 | 100 to 1000
O=C1N[C@]2(C(=O)NS(=O)(=O)C3CC3)C[C@H]2/C=C\CCCCC[C@H](NC(=O)N2CCC2)C(=O)N2C[C@H](OC(=O)N3Cc4cccc(F)c4C3)C[C@@H]12 [Compound 417] | < 100 | < 100
O=C1N[C@]2(C(=O)NS(=O)(=O)C3CC3)C[C@H]2/C=C\CCCCC[C@H](NC(=O)N2CC(F)(F)C2)C(=O)N2C[C@H](OC(=O)N3Cc4cccc(F)c4C3)C[C@@H]12 [Compound 418] | < 100 | < 100
O=C(C[C@H]1CCCCC/C=C\[C@@H]2C[C@@]2(C(=O)NS(=O)(=O)C2CC2)NC(=O)[C@@H]2C[C@@H](OC(=O)N3Cc4cccc(F)c4C3)CN2C1=O)Oc1ccccc1 [Compound 419] | < 100 | 100 to 1000
CN(Cc1ccccc1)C(=O)N[C@H]1CCCCC/C=C\[C@@H]2C[C@@]2(C(=O)NS(=O)(=O)C2CC2)NC(=O)[C@@H]2C[C@@H](OC(=O)N3Cc4cccc(F)c4C3)CN2C1=O [Compound 421] | < 100 | < 100
O=C1N[C@]2(C(=O)NS(=O)(=O)C3CC3)C[C@H]2/C=C\CCCCC[C@H](NC(=O)N2Cc3ccccc3C2)C(=O)N2C[C@H](OC(=O)N3Cc4cccc(F)c4C3)C[C@@H]12 [Compound 422] | < 100 | 100 to 1000
CCN(C(=O)N[C@H]1CCCCC/C=C\[C@@H]2C[C@@]2(C(=O)NS(=O)(=O)C2CC2)NC(=O)[C@@H]2C[C@@H](OC(=O)N3Cc4cccc(F)c4C3)CN2C1=O)C(C)(C)C [Compound 423] | < 100 | < 100
CN(C(=O)N[C@H]1CCCCC/C=C\[C@@H]2C[C@@]2(C(=O)NS(=O)(=O)C2CC2)NC(=O)[C@@H]2C[C@@H](OC(=O)N3Cc4cccc(Cl)c4C3)CN2C1=O)C(C)(C)C [Compound 424] | < 100 | < 100
CN(C(=O)N[C@H]1CCCCC/C=C\[C@@H]2C[C@@]2(C(=O)NS(=O)(=O)C2CC2)NC(=O)[C@@H]2C[C@@H](OC(=O)N3Cc4cccc(F)c4C3)CN2C1=O)C1CCCC1 [Compound 425] | < 100 | < 100
O=C(N[C@H]1CCCCC/C=C\[C@@H]2C[C@@]2(C(=O)NS(=O)(=O)C2CC2)NC(=O)[C@@H]2C[C@@H](OC(=O)N3Cc4cccc(F)c4C3)CN2C1=O)OC1CCC1 [Compound 427] | < 100 | < 100
O=C(N[C@H]1CCCCC/C=C\[C@@H]2C[C@@]2(C(=O)NS(=O)(=O)C2CC2)NC(=O)[C@@H]2C[C@@H](OC(=O)N3Cc4cccc(F)c4C3)CN2C1=O)OC(C1CC1)C1CC1 [Compound 428] | < 100 | 100 to 1000
